Literature values in patent US11981760B2, “Therapeutic hydrogels and contact lens for corneal melting” (THE REGENTS OF THE UNIVERSITY OF COLORADO, priority 2018, dated 2024).

In the case of c1ccc(CNCc2ccccn2)nc1 [DPA, dipicolylamine], the “association with other metal ions” value (Ca^2+, Mg^2+, Na^+ and K^+) is given as “does not associate strongly” and the Kd (five-membered chelate ring, read-out: Kd of Zn^2+ complexation) is given as roughly 0.01 nM.
